From patent US4732970A, “Antitumor amino acid and peptide derivatives of 1,4-bis(aminoalkyl and hydroxy-aminoalkyl)amino)-5,8-dihydroxyanthraquinones” (priority 1986, dated 1988)

Assays:
[1] = system: lymphocytic leukemia P388; test: Lymphocytic Leukemia P388 Test; type: in vivo, BDF1 mice; conditions: for Median Survival: BDF1 mice
Outline: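 BDF1 mice (5–6 per group) were inoculated i.p. with 10^6 P388 cells, then dosed i.p. on days 1, 5 and 9 at various doses. Survival was followed for 60 days, and median survival time and the treated/control (T/C) survival ratio were calculated.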

[2] = system: melanotic melanoma B16 tumor; test: Melanotic Melanoma B16 test; type: in vivo, BDF1 mice; conditions: for Median Survival: BDF1 mice; for T/C × 100 (%): ratio of survival time treated/control
Experimental: The animals used were BDFl mice, all of the same sex, weighing a minimum of 17 g and all within a 3 g weight range. There were 12 animals per test group. A 1 g portion of melanotic melanoma B16 tumor was homogenized in 10 ml of cold balanced salt solution and a 0.5 ml aliquot of the homogenate was implanted intraperitoneally into each of the test mice. The test compounds were administered intraperitoneally on days 1, 5 and 9 (relative to tumor inoculation) at various doses. The animals were weighed and survivors recorded on a regular basis for 60 days. The median survival time and ratio of survival time for treated (T)/control (C) animals were calculated. The positive control compound was 1,4-bis[(2-aminoethyl)amino]-5,8-dihydroxyanthraquinone, dihydrochloride (U.S. patent application Ser. No. 87,354, filed Oct. 23, 1979).

[3] = dose 0.75 mg/kg intraperitoneally on days 1, 5 and 9
[4] = dose 0.75 mg/kg intraperitoneally on days 1, 5 and 9, ratio of survival time treated/control
[5] = dose 1.5 mg/kg intraperitoneally on days 1, 5 and 9
[6] = dose 1.5 mg/kg intraperitoneally on days 1, 5 and 9, ratio of survival time treated/control
[7] = dose 3 mg/kg intraperitoneally on days 1, 5 and 9
[8] = dose 3 mg/kg intraperitoneally on days 1, 5 and 9, ratio of survival time treated/control

## Cl.Cl.N[C@@H](CCC(=O)O)C(=O)NCCNc1ccc(NCCNC(=O)[C@@H](N)CCC(=O)O)c2c1C(=O)c1c(O)ccc(O)c1C2=O (relative stereo) [Example 23, [S-(R*,R*)]-5,5'-[(9,10-Dihydro-5,8-dihydroxy-9,10-dioxo-1,4-anthracenediyl)bis(imino-2,1-ethanediylimino)]-bis[4-amino-5-oxo-pentanoic acid], dihydrochloride]
[1]; [3]
  Median Survival: 22.0 days
[1]; [4]
  T/C × 100 (%): 220%
[1]; [5]
  Median Survival: 24.5 days
[1]; [6]
  T/C × 100 (%): 245%
[1]; [7]
  Median Survival: 41.0 days
[1]; [8]
  T/C × 100 (%): 410%
[2]; [3]
  Median Survival: 27.5 days
  T/C × 100 (%): 162%
[2]; [5]
  Median Survival: 31.0 days
  T/C × 100 (%): 182%
[2]; [7]
  Median Survival: 22.0 days
  T/C × 100 (%): 129%

## C[C@@H](O)[C@H](N)C(=O)NCCNc1ccc(NCCNC(=O)[C@@H](N)[C@@H](C)O)c2c1C(=O)c1c(O)ccc(O)c1C2=O.O=C(O)C(F)(F)F.O=C(O)C(F)(F)F (relative stereo) [Example 26, [2S-(2R*,2'R*,3S*,3'S*)]-N,N'-[(9,10-Dihydro-5,8-dihydroxy-9,10-dioxo-1,4-anthracenediyl)bis(imino-2,1-ethanediyl)]bis[2-amino-3-hydroxybutanamide]bis(trifluo roacetate)]
[1]; [3]
  Median Survival: 21.0 days
[1]; [4]
  T/C × 100 (%): 210%
[1]; [5]
  Median Survival: 22.5 days
[1]; [6]
  T/C × 100 (%): 225%
[1]; [7]
  Median Survival: 33.5 days
[1]; [8]
  T/C × 100 (%): 335%
[2]; [3]
  Median Survival: 35.0 days
  T/C × 100 (%): 206%
[2]; [5]
  Median Survival: 39.5 days
  T/C × 100 (%): 232%
[2]; [7]
  Median Survival: 40.0 days
  T/C × 100 (%): 235%

## Br.Br.Br.Br.NCCCC[C@H](N)C(=O)NCCNc1ccc(NCCNC(=O)[C@@H](N)CCCCN)c2c1C(=O)c1c(O)ccc(O)c1C2=O (relative stereo) [Example 33, [S-(R*,R*)]-N,N'-[(9,10-Dihydro-5,8-dihydroxy-9,10-dioxo-1,4-anthracenediyl)bis(imino-2,1-ethanediyl)]bis[2,6-diaminohexanamide], tetrahydrobromide]
[1]; [3]
  Median Survival: 23.0 days
[1]; [4]
  T/C × 100 (%): 230%
[1]; [5]
  Median Survival: 33.0 days
[1]; [6]
  T/C × 100 (%): 330%
[1]; [7]
  Median Survival: 13.0 days
[1]; [8]
  T/C × 100 (%): 130%
[2]; [3]
  Median Survival: 26.5 days
  T/C × 100 (%): 156%
[2]; [5]
  Median Survival: 37.5 days
  T/C × 100 (%): 221%
[2]; [7]
  Median Survival: 25.5 days
  T/C × 100 (%): 162%

## Cl.Cl.NCCNc1ccc(NCCN)c2c1C(=O)c1c(O)ccc(O)c1C2=O [1,4-bis[(2-aminoethyl)amino]-5,8-dihydroxyanthraquinone, dihydrochloride, reference compound]
[2]; [5]
  Median Survival: 46.5 days
  T/C × 100 (%): 274%

## Cl.Cl.NCC(=O)NCCNc1ccc(NCCNC(=O)CN)c2c1C(=O)c1c(O)ccc(O)c1C2=O [Example 19, N,N'-[(9,10-Dihydro-5,8-dihydroxy-9,10-dioxo-1,4-anthracenediyl)bis(imino-2,1-ethanediyl)]bis[2-amino-acetamide], dihydrochloride]
[1]; Mus musculus, P388, ip, dose 0.75 mg/kg intraperitoneally on days 1, 5 and 9, ratio of survival time treated/control, read-out: T/C × 100 (%)
  response vs control in vivo at 0.75 mg/kg: 183%
[1]; Mus musculus, P388, ip, dose 1.5 mg/kg intraperitoneally on days 1, 5 and 9, ratio of survival time treated/control, read-out: T/C × 100 (%)
  response vs control in vivo at 1.5 mg/kg: 200%
[1]; Mus musculus, P388, ip, dose 3 mg/kg intraperitoneally on days 1, 5 and 9, ratio of survival time treated/control, read-out: T/C × 100 (%)
  response vs control in vivo at 3 mg/kg: 288%
[1]; [3]
  Median Survival: 22.0 days
[1]; [5]
  Median Survival: 24.0 days
[1]; [7]
  Median Survival: 34.5 days
[2]; [3]
  Median Survival: 27.5 days
  T/C × 100 (%): 162%
[2]; [5]
  Median Survival: 28.0 days
  T/C × 100 (%): 165%
[2]; [7]
  Median Survival: 37.0 days
  T/C × 100 (%): 218%
